PubChem BioAssay (NCI)
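Growth conditions: 96-well plates. Treatment: test compound, 48 hours, 5 concentrations. Analysis: linear interpolation between bracketing concentrations; unreached endpoints set to highest concentration. GI50: concentration for 50% inhibition of growth. TGI: concentration producing complete growth inhibition.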

Legend:
Assay in all cases: growth of human tumour cells (NCI), 48 h
NCI-H23 lung = tested on: NCI-H23 lung
NCI-H460 lung = tested on: NCI-H460 lung
NCI-H522 lung = tested on: NCI-H522 lung
NCI/ADR-RES ovarian = tested on: NCI/ADR-RES ovarian
OVCAR-3 ovarian = tested on: OVCAR-3 ovarian
OVCAR-4 ovarian = tested on: OVCAR-4 ovarian
OVCAR-5 ovarian = tested on: OVCAR-5 ovarian
OVCAR-8 ovarian = tested on: OVCAR-8 ovarian
PC-3 prostate = tested on: PC-3 prostate
RPMI-8226 leukemia = tested on: RPMI-8226 leukemia
RXF 393 renal = tested on: RXF 393 renal
SF-268 CNS = tested on: SF-268 CNS
SF-295 CNS = tested on: SF-295 CNS
SF-539 CNS = tested on: SF-539 CNS
SK-MEL-2 melanoma = tested on: SK-MEL-2 melanoma
SK-MEL-28 melanoma = tested on: SK-MEL-28 melanoma
SK-MEL-5 melanoma = tested on: SK-MEL-5 melanoma
SK-OV-3 ovarian = tested on: SK-OV-3 ovarian
SN12C renal = tested on: SN12C renal
SNB-19 CNS = tested on: SNB-19 CNS
SNB-75 CNS = tested on: SNB-75 CNS
SR leukemia = tested on: SR leukemia
SW-620 colon = tested on: SW-620 colon
T-47D breast = tested on: T-47D breast
TK-10 renal = tested on: TK-10 renal
U251 CNS = tested on: U251 CNS
UACC-257 melanoma = tested on: UACC-257 melanoma
UACC-62 melanoma = tested on: UACC-62 melanoma
UO-31 renal = tested on: UO-31 renal

SMILES: CCCCCCCC/C=C/CCCCCCCC(=O)OC[C@H]1O[C@@H](n2ccc(N)nc2=O)C(F)(F)[C@@H]1O
- TGI (NCI-H23 lung): 21.1 µM
- GI50 (NCI-H460 lung): < 21.2 nM
- TGI (NCI-H460 lung): > 33.4 µM
- GI50 (NCI-H522 lung): 201 nM
- TGI (NCI-H522 lung): > 100 µM
- GI50 (NCI/ADR-RES ovarian): < 21.7 nM
- TGI (NCI/ADR-RES ovarian): > 100 µM
- GI50 (OVCAR-3 ovarian): 8.86 µM
- TGI (OVCAR-3 ovarian): > 100 µM
- GI50 (OVCAR-4 ovarian): > 100 µM
- TGI (OVCAR-4 ovarian): > 100 µM
- GI50 (OVCAR-5 ovarian): 724 nM
- TGI (OVCAR-5 ovarian): > 100 µM
- GI50 (OVCAR-8 ovarian): < 10 nM
- GI50 (PC-3 prostate): 752 nM
- TGI (PC-3 prostate): > 100 µM
- GI50 (RPMI-8226 leukemia): 128 nM
- TGI (RPMI-8226 leukemia): > 100 µM
- GI50 (RXF 393 renal): 67.5 nM
- TGI (RXF 393 renal): > 49.2 µM
- GI50 (SF-268 CNS): < 22.4 nM
- TGI (SF-268 CNS): 19.7 µM
- GI50 (SF-295 CNS): 24.2 nM
- TGI (SF-295 CNS): 555 nM
- GI50 (SF-539 CNS): < 18.3 nM
- TGI (SF-539 CNS): 1170 nM
- GI50 (SK-MEL-2 melanoma): 14.2 µM
- TGI (SK-MEL-2 melanoma): > 100 µM
- GI50 (SK-MEL-28 melanoma): > 51.1 µM
- TGI (SK-MEL-28 melanoma): > 100 µM
- GI50 (SK-MEL-5 melanoma): 32.7 nM
- TGI (SK-MEL-5 melanoma): > 100 µM
- GI50 (SK-OV-3 ovarian): 272 nM
- TGI (SK-OV-3 ovarian): > 100 µM
- GI50 (SN12C renal): 38.8 nM
- TGI (SN12C renal): > 47.2 µM
- GI50 (SNB-19 CNS): < 41.9 nM
- TGI (SNB-19 CNS): > 43.5 µM
- GI50 (SNB-75 CNS): 360 nM
- TGI (SNB-75 CNS): > 66.1 µM
- GI50 (SR leukemia): < 13.4 nM
- TGI (SR leukemia): 11.1 µM
- GI50 (SW-620 colon): 75.9 nM
- TGI (SW-620 colon): > 100 µM
- GI50 (T-47D breast): 152 nM
- TGI (T-47D breast): > 100 µM
- GI50 (TK-10 renal): 2380 nM
- TGI (TK-10 renal): > 100 µM
- GI50 (U251 CNS): < 16 nM
- TGI (U251 CNS): 25.3 µM
- GI50 (UACC-257 melanoma): 39 nM
- TGI (UACC-257 melanoma): > 100 µM
- GI50 (UACC-62 melanoma): 33.1 nM
- TGI (UACC-62 melanoma): > 100 µM
- GI50 (UO-31 renal): < 13.6 nM
- TGI (UO-31 renal): 125 nM
